# Results: a melting point compilation (Tetko et al.; mined from patent text by program, amines drawn as free bases though some values may be those of a salt)
row,melting point [°C],SMILES
1,243,Cc1c(-c2ccccc2)[nH]c(=O)n1C1CCN(Cc2cccc(C(F)(F)F)c2)CC1
2,110 to 112,O=C(NCC(F)(F)F)C1CC(=O)N(Cc2ccccc2)C1 (centres undefined)
3,281,COCCN(C)C1=N/C(=C\c2c[nH]c3ncc(Cl)cc23)C(=O)N1
4,188 to 191,O=C(Nc1ccc(F)c(C(F)(F)F)c1)Nc1ccc(OCc2ccccc2)cc1O
5,186 to 190,O=C(O)c1ccc(SC(Cn2ccnc2)c2ccccc2O)cc1 (centres undefined)
6,125 to 130,CN(Cc1cc2c3c(c1)c(=O)c(C(=O)NCc1ccc(Cl)cc1)cn3CC(=O)N2C)C[C@@H](O)c1nccs1
7,107 to 110,O=C(O)Cc1cnn(-c2ccccc2)c1-c1ccccc1
8,130 to 132,O=C(N1CCC(n2ccc3ccccc32)CC1)C(F)(F)F
9,96 to 98,COC(=O)COc1ccc(Cn2c(-c3ccc(OC4CCCC4)cc3)c(C)c3cc(OCc4ccccc4)ccc32)cc1
10,92 to 93,CC(C)(OCc1nn(Cc2ccccc2)c2ccccc12)C(=O)NN
11,66 to 67,Cc1cccc(C(Cl)=NNc2ccccc2)c1
12,92 to 93,c1coc(-c2nc(COc3ccc(CCCn4ccnc4)cc3)co2)c1
13,140 to 144,CS(=O)c1cc2ccccc2[nH]1 (centres undefined)
14,70 to 73,CCCCCCCCCCCCc1cc(C(=O)O)c(C)o1
15,133 to 134,CCCc1c(OCCCOc2ccc(Cl)cc2)ccc2c1OC(CCC(=O)O)(CCC(=O)O)CC2=O
16,89 to 90,CCOC(=O)Cc1ccc(-c2nc(COc3ccc(COc4nn(-c5ccccc5)cc4/C=C\c4csc(C(C)C)n4)cc3OC)c(C)o2)cc1
17,140 to 143,CC(=O)NC(=CC(C)C)c1ccccc1N1CCCCC1
18,112,CC(C)c1ccc(S(=O)(=O)n2c(CO)cc3cc(C(F)(F)F)ccc32)cc1
19,128,O=C(c1ccncc1)c1cc(-c2cccnc2)c(N2CCOCC2)s1
20,144 to 146,CCCC(=O)c1cnc2c(OCCOCCO)cccc2c1Nc1ccccc1C
21,114 to 118,O=C(Cn1sc2ccccc2c1=O)N1CCN(C(=O)Oc2ccc([N+](=O)[O-])cc2)CC1
22,63,C=Cc1cc(Cl)c(N)c(Cl)c1
23,98 to 100,COC(=O)CCc1nc(C(=O)OC)ccc1OC

row,melting point [°C],SMILES
1,42 to 43,C#Cc1cccc(C(=O)OCc2ccccc2)c1N
2,362,CC(=O)N1CCc2sc(/C=C3/C(=O)N4C(C(=O)O)=CS[C@H]34)cc2C1
3,189 to 191,c1cn(Cc2ccc(OCc3nnn[nH]3)cc2)cn1
4,121 to 122,N#CCCSN1C(=O)COCC1=O
5,120 to 121,COc1cccc(Sc2ccnc(Nc3cc(OC)c(OC)c(OCCN4CCCC4)c3)n2)c1
6,94 to 95,COCCOc1ccc2c(c1)OCC21C(=O)N(Cc2ccccn2)c2ccccc21 (centres undefined)
7,95 to 101,"CC1(C)C=Cc2c(ccc3c2OCC2(O)c4ccc(O)cc4OC32)O1 (single isomer, unassigned; (-))"
8,79 to 80,COC(=O)CS(=O)(=O)C(C)c1ccc(-c2ccccc2)cc1 (centres undefined)
9,110 to 113,CCCc1c(COc2ccc(Cc3nnn(CCCCCCc4nnn[nH]4)n3)cc2)ccc(C(C)=O)c1O
10,153 to 155,CCCCN(c1cccc(-c2ccnc3c([N+](=O)[O-])cnn23)c1)S(C)(=O)=O
11,128 to 129,COC(=O)NC(Cc1c[nH]c2ccccc12)C(=O)OCc1cc(C)cc(C)c1 (centres undefined)
12,65.1,C#CCOc1cc(-c2ccccc2)ncn1
13,78 to 81,O=CNc1ccccc1CCc1ccccn1
14,165 to 167,COc1ccc(-c2ccc(C(=O)Nc3cc4ncc(CN5CCCC5)cc4cc3C)cc2F)cc1
15,231 to 232,CN(c1ccc(Cl)cc1)C1CCN(C2CCN(c3ccc(OC[C@@]4(C)Cn5cc([N+](=O)[O-])nc5O4)cc3)CC2)CC1
16,54 to 56,CC(=Cc1ccc(C)cc1C)c1ccc2c(c1)C(C)(C)CCC2(C)C
17,211 to 213,COc1ccc2c(c1)NC1(CCN(C(C)=O)CC1)c1cccn1-2
18,197 to 199,CC[C@H](C)[C@@H](CO)NC(=O)[C@H](Cc1c[nH]cn1)NC(=O)[C@H](Cc1cccc2ccccc12)NC(=O)OCc1ccccc1
19,178 to 183,CNC(=O)c1ccccc1Nc1nc(Nc2ccc3c(c2)CCN(CCOC)CC3)ncc1Cl
20,51 to 54,CC(=O)NC1CCN(Cc2ccccc2)C1C (centres undefined)
21,143 to 145,CN1c2ccccc2N(C(=O)CNC(C)(C)C)c2ccccc2S1(=O)=O
22,120 to 123,Cn1c(C(=O)NCCCNC2CCCCC2)ccc1-c1nc(-c2cccc(C(F)(F)F)c2)cs1
23,117 to 119,CN(C)C=CC(=O)c1cccc(N(C)C(=O)C2CCC2)c1

row,melting point [°C],SMILES
1,95 to 97,OC/C=C/C=C/c1ccc(OCC(F)(F)C(F)F)cc1
2,70 to 75,COC(=O)CC1=C(C)C(O)c2ccc(C#N)cc21 (centres undefined)
3,100 to 102,CCOC(=O)CC(c1ccccc1)c1ccc(N2CCN(CCC3CCN(C(=O)OC(C)(C)C)CC3)C2=O)cc1 (centres undefined)
4,164 to 165,CCn1c(C)c(C)cc(C(=O)O)c1=O
5,154 to 156,Cc1cc(Oc2cccc([N+](=O)[O-])c2N(C)C(=O)OC(C)(C)C)cc(C)c1NC(=O)OC(C)(C)C
6,122 to 123,O=C(c1cccc(C(F)(F)F)c1)N(CCCCc1cccnc1)C1=Nc2cccc3cccc1c23
7,127 to 128,CC(Oc1ccc(Oc2ncc(C(F)(F)F)cc2F)cc1)C(=O)Nc1ccc(C(F)(F)F)cc1 (centres undefined)
8,76 to 78,N#CC1(O)CCN(c2ncccc2F)CC1
9,158,CCCCCCCCCCC=Cc1cnn(C(C(=O)Nc2c(C(C)C)cccc2C(C)C)c2ccccc2)c1 (centres undefined)
10,232 to 233,C=C(Nc1nc(-c2ccccc2)c(-c2nc3ccccc3c(=O)n2-c2ccc(C(C)=O)cc2)s1)c1ccco1
11,60 to 62,COc1ccc(CS(=O)(=O)/C(=C/c2c(OC)cc(OC)cc2OC)C(=O)c2ccc(OC)cc2)cc1
12,118 to 123,CC[C@@H](NC(=O)CCCCl)C(N)=O
13,106 to 107,Fc1ccc(-c2nc(Cl)nc3c2CCC3)cc1
14,117 to 119,COc1ccc(Cn2c(=O)c3nccnc3n(CCCCBr)c2=O)cc1
15,98 to 100,COC(=O)CCCCNC(=O)[C@H](Cc1ccccc1)NC(=O)OC(C)(C)C
16,96 to 98,CCOC(=O)C1=C[C@@H](OC(CC)CC)[C@@H](NC(C)=O)[C@H](N=[N+]=[N-])[C@@H]1OS(C)(=O)=O
17,> 300,Cc1nn(C)c2[nH]c(=O)c3c(c12)CCCC3
18,177 to 180,CC(=O)COc1ccc(N2N=C3c4ccccc4SCC3CC2=O)cc1 (centres undefined)
19,134 to 136,O=C(O)CCc1cn(Cc2ccc(Cl)cc2Cl)c2ccccc12
20,190,O=C(O)c1ccccc1Nc1ccnn1Cc1ccccc1
21,140 to 142,O=C(O)CSCCCCCn1nc(-c2ccccc2)c(-c2ccccc2)c1-c1ccccc1
22,74 to 77,CC(=S)NC[C@H]1CN(c2ccc3c(c2)OC[C@@H](C)N3)C(=O)O1
23,133 to 134,N#Cc1ccc(C(=O)Nc2cccc(-n3nc(C(F)(F)F)cc3C(F)(F)F)c2)cc1

row,melting point [°C],SMILES
1,91 to 93,O=C(COc1ccccc1)NCCCn1ccnc1
2,155 to 158,CC(=O)OC1CSC(Oc2cccc3onc(C)c23)C(OC(C)=O)C1OC(C)=O (centres undefined)
3,183 to 184,O=C1OC(=O)c2c(Br)c(Sc3ccccc3)c(Sc3ccccc3)c(Br)c21
4,64.5 to 65.5,COc1nc(-c2cc(C)c(OCCCc3cc(C)no3)c(C)c2)no1
5,186 to 188,CCOC(=O)C1CNc2c(OC)cc(Cc3cnc(N)nc3N)c(OC)c2C1 (centres undefined)
6,108 to 110,CCOc1ccc2c(c1)CC(=O)N2C1CCCCO1 (centres undefined)
7,75 to 78,COc1ccc(C(=O)C(NCCc2ccc(OC)c(OC)c2Cl)SC)cc1 (centres undefined)
8,84 to 90,CC(=O)C1CCC2C3CCC4CCCCC4(C)C3CCC12C (centres undefined)
9,157,COc1ccc(S(=O)(=O)N2C(=O)C(c3ccccc3OC)(N3Cc4cc(OC)c(OC)cc4C[C@H]3C(=O)N(C)C)c3cc(Cl)ccc32)c(OC)c1 (some centres undefined)
10,160 to 162,COCCN1CCC(c2ccc(C(=O)NC3(C(=O)NCC#N)CCCCC3)cc2)CC1
11,183 to 184,CCc1cnn(CC(=O)O)c1OCCn1cc(C(=O)NCc2ccc(C(F)(F)F)cc2)c(OC(C)C)n1
12,> 300,O=C(CCN1CCN(Cc2ccccc2)CC1)c1ccc2[nH]c(=O)oc2c1
13,173 to 174,O=Cc1sccc1-c1noc2ccccc12
14,76 to 78,OCc1nccc(N2CCOCC2)n1
15,254 to 256,Cc1cc(S)n2nc(S(=O)(=O)O)nc2n1
16,70 to 72,CC(=O)NCC1CN(c2ccc(N3CCC(O)C(C)(C)C3)c(F)c2)C(=O)O1 (centres undefined)
17,175 to 178,CCOC(=O)C1=C(C)NC(C)=C(C(=O)OCC)C1c1ccccc1C=CC(=O)O
18,185 to 186,CNC(=NCCS(=O)Cc1[nH]cnc1C)NC#N (centres undefined)
19,222,O=C(O)C1=CC2=C(C(=O)C1)N1C=CC=CC1=CS2
20,298 to 299,O=C(NC(Cc1ccc(OCc2ccccc2)cc1)C(=O)O)c1cc2cc(-c3ccc(Cl)cc3)ccc2[nH]c1=O (centres undefined)
21,118 to 119,c1ccc(OCC2CCN(CCCOc3cccc4[nH]ccc34)CC2)cc1
22,> 300,Cc1[nH]c(=O)[nH]c1C(N)=O

row,SMILES,melting point [°C]
1,CN1CCC(c2c[nH]c3ccc(SCc4ccccc4)cc23)CC1,138 to 141
2,C#CCON=C(C)C1CN2CCC1CC2 (centres undefined),56 to 58
3,CN(CC(=O)Nc1ccccc1)C(=O)CN1CCCC1=O,145 to 146
4,O=C(c1ccc(Cl)cc1)c1ccc2c(c1)C(c1cccc(Cl)c1)SCc1nnnn1-2 (centres undefined),212
5,O=NCNC1=Nc2sc(Cl)cc2C(c2ccccc2)=NC1,108 to 110
6,Brc1ccc(-c2cn([C@H]3CN4CCC3CC4)nn2)s1,146
7,CC(/C=C/c1ccccc1-c1ccc2c(c1)C(C)(C)CCC2(C)C)=C\C(=O)O,178 to 179
8,CCN(CC)C(=O)N(C1CCCCC1)C1CCN(C(=O)C(Cc2ccc(Cl)cc2)NC2CCNCC2)CC1 (centres undefined),> 220
